Values after ≈ are worked out from the molar mass of the structure shown. Where two headings read alike, the source gives them in different places.
Legend:
Mtb [1] = experiment: microbe, parasite or virus in culture; format: cell-based, Mycobacterium tuberculosis; settings: Mycobacterium tuberculosis, read-out: MIC (I)
Mtb [2] = experiment: microbe, parasite or virus in culture; format: cell-based, Mycobacterium tuberculosis; settings: Mycobacterium tuberculosis, read-out: MIC (III)
in vitro = settings: African green monkey

Row | SMILES | MIC (Mtb [1]) [µg/mL] | MIC (Mtb [2]) [µg/mL] | CC50 (in vitro) [µg/mL]
1 | COCCOC(=O)NC(=O)c1ccsc1NC(=O)c1nc2ccccc2s1 [Compound 18] | < 1 | > 25 | > 50
2 | CC(C)(C)C(=O)Nc1cc(C(=O)Nc2sccc2C(=O)NC(=O)OCCF)ccn1 [Compound 29] | < 1 | > 25 | 25 to 50 (≈ 57.3 to 115 µM)
3 | CC(C)(C)C(=O)Nc1cc(C(=O)Nc2sccc2C(=O)NC(=O)OCCN2CCOCC2)ccn1 [Compound 32] | > 3 | > 25 | > 50
4 | CCOC(=O)NC(=O)c1ccsc1NC(=O)c1ccnc(NC(=O)N2CCOCC2)c1 [Compound 33] | < 1 | > 25 | > 50
5 | CC(CN1CCOCC1)OC(=O)NC(=O)c1ccsc1NC(=O)c1nc2ccccc2s1 (stereo not drawn) [Compound 34] | > 3 | 5 to 25 (≈ 10.5 to 52.7 µM) | < 25
6 | O=C(NC(=O)c1ccsc1NC(=O)c1nc2ccccc2s1)OC1COC1 [Compound 35] | < 1 | > 25 | < 25
7 | CCOC(=O)NC(=O)c1ccsc1NC(=O)c1cc(NC(=O)C(C)(C)C)ncn1 [Compound 36] | 1 to 3 (≈ 2.38 to 7.15 µM) | > 25 | > 50
8 | O=C(NC(=O)c1ccsc1NC(=O)c1nc2ccccc2s1)OCCF [Compound 37] | < 1 | > 25 | > 50
9 | CC(C)OC(=O)NC(=O)c1ccsc1NC(=O)c1nc2ccccc2s1 [Compound 41] | < 1 | > 25 | < 25
10 | CCOC(=O)NC(=O)c1ccsc1NC(=O)c1ccc2scnc2c1 [Compound 43] | < 1 | 5 to 25 (≈ 13.3 to 66.6 µM) | > 50
11 | CCOC(=O)NC(=O)c1ccsc1NC(=O)c1ccnc(NC(=O)CN2CCOCC2)c1 [Compound 46] | < 1 | > 25 | > 50
12 | CCOC(=O)NC(=O)c1ccsc1NC(=O)c1ccnc(NC(=O)N2CCS(=O)(=O)CC2)c1 [Compound 47] | < 1 | > 25 | > 50
13 | O=C(NC(=O)c1ccsc1NC(=O)c1ccnc(NC(=O)N2CCOCC2)c1)OCCF [Compound 48] | < 1 | > 25 | > 50
14 | CCOC(=O)NC(=O)c1ccsc1NC(=O)c1ccnc(NC(=O)N2CCN(C)CC2)c1.Cl.Cl [Compound 49] | 1 to 3 | > 25 | > 50
15 | CCOC(=O)NC(=O)c1ccsc1NC(=O)c1ccnc(NC(=O)N2CCC(F)(F)CC2)c1 [Compound 50] | < 1 | > 25 | 25 to 50 (≈ 51.9 to 104 µM)
16 | CCOC(=O)NC(=O)c1ccsc1NC(=O)c1ccnc(NC(=O)N2CCCCC2)c1 [Compound 51] | < 1 | > 25 | 25 to 50 (≈ 56.1 to 112 µM)

Row | SMILES | MIC (Mtb [1]) [µg/mL] | MIC (Mtb [2]) [µg/mL] | CC50 (in vitro) [µg/mL]
17 | CCOC(=O)NC(=O)c1ccsc1NC(=O)c1ccc2sc(N3CCOCC3)nc2c1 [Compound 58] | < 1 | 5 to 25 (≈ 10.9 to 54.3 µM) | > 50
18 | CCOC(=O)NC(=O)c1ccsc1NC(=O)c1ccc2sc(N3CCN(C)CC3)nc2c1 [Compound 59] | < 1 | 5 to 25 (≈ 10.6 to 52.8 µM) | > 50
19 | CCOC(=O)NC(=O)c1cc(C)sc1NC(=O)c1ccc2scnc2c1 [Compound 62] | 1 to 3 (≈ 2.57 to 7.7 µM) | > 25 | 25 to 50 (≈ 64.2 to 128 µM)
20 | CCOC(=O)NC(=O)c1ccsc1NC(=O)c1ccc2cccnc2c1 [Compound 63] | < 1 | 5 to 25 (≈ 13.5 to 67.7 µM) | > 50
21 | CCOC(=O)NC(=O)c1ccsc1NC(=O)C1=NNC(=O)CC1 [Compound 64] | < 1 | < 5 | > 50
22 | CCOC(=O)NC(=O)c1ccsc1NC(=O)c1cnc2cc(C)nn2c1C [Compound 65] | < 1 | < 5 | > 50
23 | CCOC(=O)NC(=O)c1ccsc1NC(=O)C1=Cc2cccc(OC)c2OC1 [Compound 66] | < 1 | < 5 | > 50
24 | CCOC(=O)NC(=O)c1ccsc1NC(=O)C1=Cc2ccccc2OC1 [Compound 67] | < 1 | < 5 | > 50
25 | CCOC(=O)NC(=O)c1ccsc1NC(=O)C1=Cc2cc(OC)ccc2OC1 [Compound 68] | < 1 | < 5 | > 50
26 | CCOC(=O)NC(=O)c1ccsc1NC(=O)c1ccc2cccnc2n1 [Compound 69] | < 1 | < 5 | < 25
27 | CCOC(=O)NC(=O)c1ccsc1NC(=O)C1COc2cc(OC)ccc2C1 (stereo not drawn) [Compound 70] | > 3 | > 25 | > 50
28 | CCOC(=O)NC(=O)c1ccsc1NC(=O)C1COc2ccc(OC)cc2C1 (stereo not drawn) [Compound 71] | 1 to 3 (≈ 2.47 to 7.42 µM) | < 5 | > 50
29 | CCOC(=O)NC(=O)c1ccsc1NC(=O)c1ccc2nccn2c1 [Compound 73] | 1 to 3 (≈ 2.79 to 8.37 µM) | > 25 | > 50
30 | CCOC(=O)NC(=O)c1ccsc1NC(=O)c1noc(C)n1 [Compound 74] | > 3 | > 25 | 25 to 50 (≈ 77.1 to 154 µM)
31 | CCOC(=O)NC(=O)c1ccsc1NC(=O)c1ccc2ncoc2c1 [Compound 75] | > 3 | > 25 | > 50

From patent US20160194299A1 (priority 2013, published 2016)
